# From patent US20240335383A1, “NANOPARTICULATE FORMULATION” (NewImmune II, LLC, priority 2021, published 2024)
# Like-named read-outs stand apart in the source and are kept apart here.
# Key:
# [1] = test system: T effector memory cells; details: Fiorenza et al, 2012; cited from earlier work
# [2] = pregnant female rabbits, intravenous, gestational Days 6-18; cited from earlier work
# [3] = rats, single subcutaneous dose; cited from earlier work
# [4] = test system: mesothelioma, renal cell carcinoma and 4T1 breast cancer; details: mouse models, cited from earlier work
# [5] = 30 mg subcutaneous dose, healthy human volunteers; cited from earlier work
# [6] = mice, rats, and monkeys; adverse effects limited to the central nervous system; cited from earlier work
# [7] = mice, dermal exposure; cited from earlier work
# [8] = rats, oral, repeated dose up to 6 months; cited from earlier work
# [9] = Britton-Robinson buffer, FIG. 1
# [10] = EMA toxicology review of Aldara; cited from earlier work
# [11] = rabbits, doses of 2000 and 5000 mg/kg under occlusion; cited from earlier work
# [12] = imiquimod; cited from earlier work
# [13] = monkeys, oral, repeated dose up to 6 months; cited from earlier work
# [14] = injected subcutaneously into patients; cited from earlier work
# [15] = set-up: species or system human
# Description: The efficacy of the presently disclosed compositions and nanoparticles allows for the administration of relatively low doses.
# [16] = test system: IL-2 stimulated B cells; details: Glaum et al, 2009; cited from earlier work
molecule,measurement,setting,value
"CC(C)Cn1cnc2c(N)nc3ccccc3c21 [imiquimod, 1-(2-methylpropyl)imidazo[4,5-c]quinolin-4-amine]",cytotoxic activity of T effector memory cells,[1],enhances the cytotoxic activity
same,dose with no treatment related effects on embryofetal toxicity or teratogenicity,[2],2 mg/kg/day
same,subcutaneous lethal dose,[3],20 mg/kg
same,overt signs of toxicity (such as weight loss and ruffled fur),[4]; 50 μL injections of 50 μg/mL imiquimod,not associated with overt signs of toxicity
same,increase in survival time at maximum inhibition of tumor growth,"[4]; intratumoral, 50 μL injections of 50 μg/mL imiquimod (p<0.05)",> 50%
same,growth of tumor,[4]; only locally (intratumoral) delivered,consistently and significantly retarded the growth of tumor
same,tolerability of subcutaneous dose,[5],well tolerated
same,single dose toxicity,[6],high degree of safety
same,carcinogenicity: incidence of tumors or non-neoplastic lesions,[7],no increase in the incidence of tumors or non-neoplastic lesions
same,no observed adverse effect level (NOAEL),[8],3 mg/kg
same,pH of maximum solubility in aqueous solution,[9],≤ 2
same,aqueous solubility above pH 6,[9]; above pH 6,sparingly soluble
same,effect on fertility,[10],did not affect fertility
same,teratogenicity and genotoxicity,[10],neither teratogenic nor genotoxic
same,dermal toxicity,[11],no deaths and no signs of toxicity other than mild transient erythema at the application site
same,in vivo half-life,[12],approximately 3 hours
same,no observed adverse effect level (NOAEL),[13],3 mg/kg
same,systemic exposure,[14],minimal systemic exposure
polyethylene glycol 4000 [PEG 4000],Safety Factor (excipient dose from approved drug vs excipient dose from NP),[15],2-fold
CCOCc1nc2c(N)nc3ccccc3c2n1CC(C)(C)O [resiquimod],IgM and IgG production by IL-2 stimulated B cells,[16],synergistically enhance IgM and IgG production
2-hydroxypropyl-β-cyclodextrin [HP-β-CD],Safety Factor (excipient dose from approved drug vs excipient dose from NP),[15],11-fold
